The values below come from ChEMBL document CHEMBL1126164, “SR 46559 A and related aminopyridazines are potent muscarinic agonists with no cholinergic syndrome” (Bioorg Med Chem Lett, 1992).

By IC50 is commonly meant the point on the concentration scale where inhibition reaches its midpoint. Broadly, the LD50 is the dose at which mortality reaches 50%. Read a low LD50 as a more toxic substance. The Ki is a dissociation constant, usually derived from enzyme kinetics or from competition with a known ligand. Higher therefore signals lower affinity. A word on the ED50: it is the midpoint of the dose-response relation. As usually defined, the Inhibition is the drop in the measured response relative to a control, in per cent.

The target in data set [1] is T1, Muscarinic acetylcholine receptor M1 (Rattus norvegicus, UniProt P08482).
T1 sequence (P08482 whole entry): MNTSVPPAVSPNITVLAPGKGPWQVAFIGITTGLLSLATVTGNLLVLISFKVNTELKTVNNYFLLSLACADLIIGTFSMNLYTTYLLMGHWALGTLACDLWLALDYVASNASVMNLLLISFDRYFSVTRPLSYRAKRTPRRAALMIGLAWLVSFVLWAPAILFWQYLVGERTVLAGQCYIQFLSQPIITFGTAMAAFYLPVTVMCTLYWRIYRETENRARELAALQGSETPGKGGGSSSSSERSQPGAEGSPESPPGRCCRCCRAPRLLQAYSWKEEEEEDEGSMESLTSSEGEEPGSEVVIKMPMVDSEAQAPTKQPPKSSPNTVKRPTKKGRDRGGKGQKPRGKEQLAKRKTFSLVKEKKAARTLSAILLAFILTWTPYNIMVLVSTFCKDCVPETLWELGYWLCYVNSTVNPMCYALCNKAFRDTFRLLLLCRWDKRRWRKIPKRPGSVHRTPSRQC
The experiment in a line: Displacement of [3H]pirenzepine from cerebral Muscarinic acetylcholine receptor M1. On the technique in general: Loss of bound radioactivity is the signal in a displacement assay; it reports binding, not function.

Data set [2] relates to Mus musculus. The experiment in a line: Percent inhibition of the number of pirenzepine-induced rotations in mice, on oral administration (3 mg/kg) 4 hr before the test; Inactive. It counts as functional, organism-based.
Data set [3] deals with Mus musculus. Kind of data set: Percent inhibition of the number of pirenzepine-induced rotations in mice, on oral administration(0.3 mg/kg) 4 hr before the test; Inactive. The class given is functional, organism-based.
A short description of data set [4]: (§1) Lethal dose in mice after oral administration. Particulars: mouse, in vivo. It counts as toxicity, organism-based.
Data set [5] concerns the target T2, Muscarinic acetylcholine receptor M1 (Homo sapiens, UniProt P11229).
T2 sequence (P11229 whole entry): T1 sequence (P08482 whole entry) with V5A, S254T, S309P, K320R, G337A, V413I
Kind of data set: Compound was tested for its affinity for muscarinic M1 receptor.

The species entered for data set [6] is Mus musculus. The experiment in a line: Effective dose required to antagonize scopolamine-induced deficit in passive avoidance learning. It counts as functional.
The subject of data set [7] is Rattus norvegicus. The experiment in a line: Effective dose required to potentiate haloperidol induced catalepsy in rats (p.o.). The class given is functional. As to conditions: po.
Data set [8] concerns Mus musculus. Kind of data set: Percent inhibition of the number of pirenzepine-induced rotations in mice, on oral administration (0.3 mg/kg) 4 hr before the test. The class given is functional.
The subject of data set [9] is Mus musculus. Kind of data set: Compound was evaluated for toxicity up to 300 mg/kg; NT - No Toxicity. It counts as functional, organism-based. More on the design: dose 300 mg/kg.
Data set [10] is filed under the species Mus musculus. The experiment in a line: Effective dose required to antagonize rotations induced in mice by intrastriatal injection of pirenzepine. The class given is functional.
The subject of data set [11] is Mus musculus. The experiment in a line: Percent inhibition of the number of pirenzepine-induced rotations in mice, on oral administration (3 mg/kg) 4 hr before the test. It counts as functional.
The species entered for data set [12] is Mus musculus. The experiment in a line: Effective dose required to antagonize pirenzepine-induced deficit in passive avoidance learning. It counts as functional.
Data set [13] is filed under the species Rattus norvegicus. The experiment in a line: Compound was tested for inhibitory concentration required for the K+ release of [3H]- GABA from rat striatal slices and reduced at 0.5 and 1 uM. It counts as functional.
For data set [14], the species on record is Mus musculus. The experiment in a line: Compound was tested for the ability to stimulate diacylglycerol formation antagonized by atropine. It counts as functional, organism-based.
In data set [15] the test system is Mus musculus. The experiment in a line: Percent inhibition of the number of pirenzepine-induced rotations in mice, on orally administration (0.3 mg/kg) 4 hr before the test. The class given is functional.
The nature of data set [16]: as §1. It counts as toxicity. As to conditions: mouse, in vivo.

Changes are numbered by the printed parent chain. Activity calls are given as the source filed them. The rule behind the calls is not given here. Bounds are passed on as bounds.

In data set [1], `CCc1cc(-c2ccccc2)nnc1NCCN1CCOCC1` returned an IC50 of 1600 nM. On the same count and under the same terms, then `CCN1CCCC1CNc1cc(C)c(-c2ccccc2)nn1` (configuration not stated), with 260 nM; and `CCN(CC)CCNc1nnc(-c2ccccc2)cc1C`, with 240 nM. On to `c1ccc2c(c1)CCCc1cc(NCCCN3CCOCC3)nnc1-2`, for which the 50% inhibitory concentration (IC50) in [1] is 2000 nM. Compound `Cc1cc(NCCN(C)C)ccc1-c1ccccc1` gave a concentration for half-maximal inhibition (IC50) in data set [1] of 140 nM. As for `CCCc1cc(NC2CCCN2CC)nnc1-c1ccccc1` (single isomer, unassigned; (+)), in [1], the half-inhibitory concentration (IC50) came out at 60 nM. Regarding `Cc1cc(-c2ccccc2)nnc1NCCN1CCOCC1` [MINAPRINE], the IC50 in data set [1] amounted to 17000 nM. Still for that read-out and setting: next, `CCN(CC)C(C)(C)CNc1cc(C)c(-c2ccccc2)nn1`: 2300 nM; `Cc1cc(NCCCN(C)C)ccc1-c1ccccc1`: 500 nM; `c1ccc(-c2cc(Cc3ccc4ccccc4c3)c(NCCN3CCOCC3)nn2)cc1`: 16000 nM.

As for `O=Cc1cc(-c2ccccc2)nnc1NCCN1CCOCC1`, the IC50 in data set [1] was > 100000 nM.

Consider `CCCc1cc(NCC(C)(C)N(CC)CC)nnc1-c1ccccc1O`, for which the half-maximal inhibitory concentration (IC50) in [1] came to 130 nM. In the case of `CCN1CCCC1CNc1cc(-c2ccccc2)c(C)nn1` (configuration not stated), the inhibition entry in data set [2] and in data set [3] was “inactive” in each case. Besides, the 50% inhibitory concentration (IC50) in data set [1] is 20 nM. `Cc1cc(-c2cccs2)nnc1NCCN1CCOCC1` showed an IC50 in data set [1] of 4000 nM.

For the compound `c1ccc(-c2cc(-c3ccccc3)c(NCCN3CCOCC3)nn2)cc1`, in data set [1], the IC50 is 600 nM. Compound `CCN(CC)C(C)(C)CNc1cc(-c2ccccc2)c(CC(C)C)nn1` displayed a 50% lethal dose (LD50) in data set [4] of 250 mg/kg. The compound also yielded an IC50 in data set [1] of 20 nM.

`CCN1CCCC1CNc1cc(C)c(-c2ccccc2O)nn1` (configuration not stated): the IC50 in [1] was determined as 8 nM. Regarding `Cc1c(NCCN2CCOCC2)nnc(-c2ccccc2)c1C`, in data set [1], the half-inhibitory concentration (IC50) was 700 nM.

Take `c1ccc(-c2cc(NCCN3CCOCC3)nnc2-c2ccccc2)cc1`: the 50% inhibitory concentration (IC50) in data set [1] turned out to be 170 nM. Take `CCCc1cc(NCC(C)(C)N(CC)CC)nnc1-c1ccccc1`: the affinity in data set [5], expressed as Ki, was 112 nM. Moreover, the 50% effective dose (ED50) is 0.25 mg/kg in [6], 0.1 mg/kg in [7], 0.12 mg/kg in data set [10] and 0.027 mg/kg in data set [12]. Moreover, the Inhibition is recorded as 51% in [8] and 78% in data set [11]. Also, the result in [9] was inactive. The half-maximal inhibitory concentration (IC50) in data set [13] is 10000 nM; in data set [14], 50000 nM; in [1], 110 nM. Compound `c1ccc(-c2ccc(NCCN3CCOCC3)nn2)cc1` came in with an IC50 in data set [1] of 12000 nM. As for `N#Cc1cc(-c2ccccc2)nnc1NCCN1CCOCC1` [BAZINAPRINE], the IC50 in data set [1] came out at 60000 nM. On the same count and under the same terms, then `Cc1cc(-c2ccc3ccccc3c2)nnc1NCCN1CCOCC1`, with 7500 nM; and `CCCc1cc(NCCN2CCOCC2)nnc1-c1ccccc1`, with 1600 nM. On the same count and under the same terms, then `Cc1cc(-c2ccccc2)nnc1NCCN1CCC(O)CC1`, with > 100000 nM; and `CCN(CC)C(C)(C)CNc1cc(C)c(-c2ccccc2O)nn1`, with 240 nM. Still for that read-out and setting: next, `CCN1CCCC1CNc1nnc(-c2ccccc2)cc1C` (configuration not stated): 800 nM. For `CCN(CC)C(C)(C)CNc1cc(-c2ccccc2)c(-c2ccccc2)nn1`, the values for the Inhibition in [11] and in data set [15] were 113% and 87%, respectively. Further, the LD50 in [16] worked out at 250 mg/kg. The compound also showed a half-maximal inhibitory concentration (IC50) in data set [1] of 40 nM. `CCN(CC)C(C)(C)CNc1cc(-c2ccccc2)c(C)nn1`: the Inhibition in [8] came to 65%; in data set [11], 85%. The IC50 in [1] is 180 nM. Turning to `Cc1cc(-c2ccccc2)nnc1NCCN1CCOCC1=O`, the IC50 in data set [1] is > 100000 nM.

`Cc1cc(-c2ccccc2)nnc1NCCN(C)C`: the concentration for half-maximal inhibition (IC50) in data set [1] was found to be 230 nM.

Turning to `CCCc1cc(NC2CCCN2CC)nnc1-c1ccccc1` (single isomer, unassigned; (-)), in data set [1], the half-inhibitory concentration (IC50) was 10 nM. As to `c1ccc2c(c1)CCCc1cc(NCCN3CCOCC3)nnc1-2`, the half-inhibitory concentration (IC50) in data set [1] came to 370 nM. Same read-out and setting: next, `c1ccc(Cc2cc(-c3ccccc3)nnc2NCCN2CCOCC2)cc1`: 4600 nM.

In [1], `CCCc1nnc(NCC(C)(C)N(CC)CC)cc1-c1ccccc1` returned a concentration for half-maximal inhibition (IC50) of 50 nM. Compound `CCN(CC)C(C)(C)CNc1cc(C2CC2)c(-c2ccccc2)nn1` returned a concentration for half-maximal inhibition (IC50) in data set [1] of 400 nM.

Consider `Cc1cc(C2CCCCC2)nnc1NCCN1CCOCC1`, for which the 50% inhibitory concentration (IC50) in data set [1] stood at 6000 nM. Same read-out and setting: then `O=C(O)c1cc(-c2ccccc2)nnc1NCCN1CCOCC1`, with > 100000 nM; and `CCCc1cc(NC2CCCN2CC)nnc1-c1ccccc1` (racemic), with 30 nM.
